Laboratory results reported in patent US9040542B2, “Solid forms of gyrase inhibitor (R)-1-ethyl-3-[6-fluoro-5-[2-(1-hydroxy-1-methyl-ethyl)pryimidin-5-yl]-7-(tetrahydrofuran-2-yl)-1H-benzimidazol-2-yl]urea” (priority 2011, dated 2015).
Converted amounts (≈) assume the structure as drawn. “And” between values parts separate entries of the source, which are not always exact repeats. Equal entries are not always repeated.

Assays:
M. avium Far = assay: MIC, Protocol #4 Mycobacterium species; format: cell-based
Neisseria gonorrhoeae = assay: MIC90 panel, Protocol #3 agar dilution; format: cell-based; conditions: 13 isolates
M. abscessus MC 5901 = assay: MIC, Protocol #4 Mycobacterium species; format: cell-based
[1] = tested on: Staphylococcus aureus ATCC 29213 GyrB T173I; assay: MIC, Protocol #1 microdilution broth; format: cell-based
[2] = tested on: Moraxella catarrhalis ATCC 49143; assay: MIC, Protocol 2 microdilution broth, Gram negatives; design: unit not given beside the values
M. abscessus MC 5812 = assay: MIC, Protocol #4 Mycobacterium species; format: cell-based
M. abscessus MC 5908 = assay: MIC, Protocol #4 Mycobacterium species; format: cell-based; conditions: in µg/mL
Clostridium perfringens = assay: microbe, parasite or virus in culture; format: cell-based
[3] = tested on: Staphlococcus epidermidis; assay: MIC90 panel, Protocol #1 microdilution broth; format: cell-based, Staphylococcus epidermidis; conditions: 35 isolates
M. avium 3404.4 = assay: MIC, Protocol #4 Mycobacterium species; format: cell-based
Prevotella spp. = assay: MIC90 panel, Protocol #3 agar dilution; format: cell-based; conditions: 13 isolates
M. abscessus BB5 = assay: MIC, Protocol #4 Mycobacterium species; format: cell-based
M. abscessus MC 5605 = assay: MIC, Protocol #4 Mycobacterium species; format: cell-based
[4] = tested on: Bacillus cereus ATCC 10987; assay: MIC, Protocol #1 microdilution broth; format: cell-based
M. kansasii 316 = assay: MIC, Protocol #4 Mycobacterium species; format: cell-based
[5] = Stability data of solid forms on storage; format: physicochemical
[6] = tested on: Clostridium difficile ATCC BAA-1382; assay: MIC, Protocol #3 agar dilution; format: cell-based
M. abscessus BB1 = assay: MIC, Protocol #4 Mycobacterium species; format: cell-based
M. abscessus LT 949 = assay: MIC, Protocol #4 Mycobacterium species; format: cell-based
M. abscessus BB10 = assay: MIC, Protocol #4 Mycobacterium species; format: cell-based
M. kansasii 303 = assay: MIC, Protocol #4 Mycobacterium species; format: cell-based
M. abscessus MC 6111 = assay: MIC, Protocol #4 Mycobacterium species; format: cell-based
[7] = tested on: β-haemolytic streptococci (Groups A, B, C and G); assay: MIC90 panel, Protocol #1 microdilution broth; format: cell-based; conditions: 28 isolates
[8] = tested on: Streptococcus pneumoniae ATCC 10015; assay: MIC, Protocol #1 microdilution broth; format: cell-based; conditions: Streptococcus pneumoniae ATCC 10015, with Laked Horse Blood
Mycobacterium avium 103 = assay: MIC, Protocol #4 Mycobacterium species; format: cell-based
[9] = tested on: M. tuberculosis Erdman ATCC 35801; assay: MIC, Protocol #4 Mycobacterium species; format: cell-based
[10] = tested on: Bacteroides and Parabacter spp.; assay: MIC90 panel, Protocol #3 agar dilution; format: cell-based; conditions: 26 isolates
Nocardia caviae 2497 = assay: MIC, Protocol #4 Mycobacterium species; format: cell-based
Experimental: Protocol #4. MIC Determination Procedure for Mycobacterium Species
Inoculum Preparation for M. kansasii, M. avium, M. abscessus and Nocardia spc.: • 1. Used prepared frozen stock of culture or a fresh culture grown in 7H10 broth at a concentration of 10 Klett or 5×10^7/ml. • 2. Prepared a 1:20 dilution by removing 1.0 ml of the culture stock and added it to 19 ml of 7H10 broth (final concentration 2.5×10^6 cfu/ml). • 3. From this dilution prepared a 1:20 dilution, removed 1 ml and added it to 19 ml of fresh broth (final suspension).
Plate Preparation: • 1. Labeled plates. • 2. Added 50 μl of 7H10 broth +10% OADC to all wells being utilized for MIC determination using a multichannel electronic pipettor. • 3. Prepared stock solutions of drugs (e.g. 1 mg/ml concentration) to be tested. • 4. Thawed and diluted frozen stock solutions using 7H10 broth +10% OADC to obtain a working solution 4× the maximum concentration tested (e.g. final concentration 32 μg/ml, highest concentration tested was 8 μg/ml). Dilutions were made from the stock solution. To start at a concentration of 1 μg/ml, the drugs were prepared at 4 μg/ml, so the starting concentration was 1 μg/ml. Removed 25 μl of the 1 mg/ml stock and added to 6.2 ml of broth. All dilutions of drugs were done in broth. • 5. Added 50 μl of the 4× working solution to the first well of the designated row. […] Read visually and recorded the results.

Neisseria meningitidis = assay: MIC90 panel, Protocol #3 agar dilution; format: cell-based; conditions: 12 isolates
N. asteroids 2039 = assay: MIC, Protocol #4 Mycobacterium species; format: cell-based
[11] = tested on: Enterococcus faecalis ATCC 29212; assay: MIC, Protocol #1 microdilution broth; format: cell-based; conditions: Enterococcus faecalis ATCC 29212, with Laked Horse Blood
M. abscessus BB4 = assay: MIC, Protocol #4 Mycobacterium species; format: cell-based
Fusobacterium spp. = assay: MIC90 panel, Protocol #3 agar dilution; format: cell-based; conditions: 16 isolates
[12] = tested on: Bacillus subtilis (168) ATCC 6051; assay: MIC, Protocol #1 microdilution broth; format: cell-based
M. abscessus MC 5931 = assay: MIC, Protocol #4 Mycobacterium species; format: cell-based

Structure (SMILES): CCNC(=O)Nc1nc2cc(-c3cnc(C(C)(C)O)nc3)c(F)c([C@H]3CCCO3)c2[nH]1 [Compound 24, 1-ethyl-3-[6-fluoro-5-[2-(1-hydroxy-1-methyl-ethyl)pyrimidin-5-yl]-7-[(2R)-tetrahydrofuran-2-yl]-1H-benzimidazol-2-yl]urea]
- MIC (M. avium Far): 0.23 µg/mL (≈ 0.537 µM)
- MIC90 (Neisseria gonorrhoeae): 0.25 µg/mL (≈ 0.583 µM)
- MIC Range (Neisseria gonorrhoeae): 0.12 to 0.25 µg/mL
- MIC (M. abscessus MC 5901): 1 µg/mL (≈ 2.33 µM)
- MIC [1]: 0.3 µg/mL (≈ 0.7 µM)
- MIC [2]: ≦0.016
- MIC (M. abscessus MC 5812): 1 µg/mL (≈ 2.33 µM)
- MIC (M. abscessus MC 5908): 1 and 1.5
- MIC90 (Clostridium perfringens): 0.5 µg/mL (≈ 1.17 µM)
- MIC Range (Clostridium perfringens; 12 isolates, Protocol 3): 0.12 to 0.5 µg/mL
- MIC Range [3]: 0.008 to 0.03 µg/mL
- MIC90 ([3]; Staphylococcus epidermidis): 0.03 µg/mL (≈ 0.07 µM)
- MIC (M. avium 3404.4): 0.23 µg/mL (≈ 0.537 µM)
- MIC90 (Prevotella spp.): 16 µg/mL (≈ 37.3 µM)
- MIC Range (Prevotella spp.): 0.06 to 16 µg/mL
- MIC (M. abscessus BB5): 0.5 µg/mL (≈ 1.17 µM)
- MIC (M. abscessus MC 5605): 1.5 µg/mL (≈ 3.5 µM)
- MIC [4]: 0.031 µg/mL (≈ 0.0724 µM)
- MIC (M. kansasii 316): 0.06 µg/mL (≈ 0.14 µM)
- chemical and physical stability ([5]; 25° C./60% RH, one week time point): chemically and physically unstable
- chemical stability ([5]; 40° C./ambient, t=2 weeks): chemically unstable
- MIC [6]: 0.38 µg/mL (≈ 0.887 µM)
- MIC (M. abscessus BB1): 2 µg/mL (≈ 4.67 µM)
- MIC (M. abscessus LT 949): 1 µg/mL (≈ 2.33 µM)
- MIC (M. abscessus BB10): 0.015 µg/mL (≈ 0.035 µM)
- MIC (M. kansasii 303): 0.03 µg/mL (≈ 0.07 µM)
- MIC (M. abscessus MC 6111): 0.5 µg/mL (≈ 1.17 µM)
- MIC90 [7]: 0.12 µg/mL (≈ 0.28 µM)
- MIC Range [7]: 0.015 to 0.12 µg/mL
- MIC [8]: 0.01 µg/mL (≈ 0.0233 µM)
- MIC (Mycobacterium avium 103): 0.18 µg/mL (≈ 0.42 µM)
- MIC [9]: 0.06 µg/mL (≈ 0.14 µM)
- MIC90 [10]: 16 µg/mL (≈ 37.3 µM)
- MIC Range [10]: 0.12 to 16 µg/mL
- MIC (Nocardia caviae 2497): 0.125 µg/mL (≈ 0.292 µM)
- MIC90 (Neisseria meningitidis): 0.03 µg/mL (≈ 0.07 µM)
- MIC Range (Neisseria meningitidis): 0.008 to 0.06 µg/mL
- MIC (N. asteroids 2039): 1 µg/mL (≈ 2.33 µM)
- MIC [11]: 0.028 µg/mL (≈ 0.0653 µM)
- MIC (M. abscessus BB4): 2 µg/mL (≈ 4.67 µM)
- MIC90 (Fusobacterium spp.): > 16 µg/mL
- MIC [12]: 4 µg/mL (≈ 9.34 µM)
- MIC (M. abscessus MC 5931): 0.5 µg/mL (≈ 1.17 µM)
